How the values were obtained:
[1] = system: purified HLA MHC Class II epitopes; test: ELISA binding of biotinylated dnaJ peptides to immobilized HLA molecules; set-up: species or system human; settings: ELISA absorption at 405 nm; FIG. 5
Text: FIG. 5 is a table comparing the binding efficiencies of several dnaJ peptides for purified HLA MHC Class II epitopes. Binding was detected by ELISA between biotinylated dnaJ peptides and immobilized HLA molecules. The results are expressed in the table as absorption units at 405 nm. The peptides tested were: dnaJp1 (SEQ. ID. No. 4), dnaJpV (SEQ. ID. No. 5), dnaJp2 (SEQ. ID. No. 6), S1 (SEQ. ID. No. 7) and S6 (SEQ. ID. No. 8). S1 and […] are synthetic peptides whose amino acid sequence corresponds to the sequence of known HLA DR antigens.

[2] = system: lymphocytes from patients with early stage RA; test: Proliferation of lymphocytes from RA patients exposed to RA susceptibility sequence peptides (stimulation index); type: cell-based, human; settings: for response of RA patient blood lymphocytes to wild-type peptide (dnaJp1) relative to response to mutant peptide (dnaJpV): PBL's of RA patients
Text: FIG. 2 quantifies proliferation of cultured lymphocytes from adult RA and juvenile RA (JRA) patients following exposure of the cells to synthetic dnaJp1 (amino acid sequence […]; SEQ. ID. No. 4) or a mutant dnaJ peptide having the amino acid sequence […] (“dnaJpV”; SEQ. ID. No. 5). The control culture tested consisted of lymphocytes obtained from adults without RA (“normals”). The responses shown by bars in the graph of FIG. 2 are expressed in terms of a lymphocyte stimulation index; i.e., (CPM detected in cultures with dnaJ)/(CPM detected in cultures without dnaJ).
(§1) Lymphocytes from patients with early untreated rheumatoid arthritis (RA) were obtained from blood (peripheral blood lymphocytes, or “PBL's”) for from synovial fluids using standard aseptic techniques. The cells were incubated for 7 days with purified recombinant E. coli dnaJ (10 μg/ml, obtained as described in Example I) in RPMI 1640 medium supplemented with 10% prescreened human AB type serum. Lymphocytes from 10 control subjects (i.e., persons without RA) were treated similarly. Proliferation during the last 16 hours of culture was expressed as a stimulation index=cpm in cultures with dnaJ/cpm in cultures without dnaJ.
Lymphocytes from patients with early stage RA were contacted with one of two RA susceptibility sequence peptides according to the protocol described in Example II. The peptides used were either a 15 amino acid synthetic peptide having the wild-type sequence […] or a 15 amino acid synthetic mutant peptide having the sequence […].

[3] = system: anti-dnaJ antibodies in sera from patients with early stage RA; test: Inhibition of antibody binding to dnaJ (ELISA, sera preincubated with peptide); set-up: species or system human; settings: sera diluted 1:100, preincubated overnight at 4° C. with peptide; % inhibition; FIG. 3
Procedure: FIG. 3 depicts the results of an inhibition study for inhibition of the activity of anti-dnaJ antibodies produced in separate sera samples from 51 early stage RA patients by intact dnaJ. The percent inhibition shown by bars in the graph of FIG. 3 is expressed in terms of the formula: % inhibition=100 I-OD460 with rdnaJ)(OD460 without rdnaJ) The control sera were obtained from humans without RA.
Microtiter plates were coated with recombinant dnaJ (10 μg/ml). Either sera obtained from patients with early stage RA or sera from control subjects were diluted 1:100 in borate buffered saline. Half of each specimen was incubated overnight at 4° C. with the wild-type dnaJ peptide described in Example III. Then the paired serum specimens were added to the dnaJ coated plates.
After 4 hours incubation, antibody binding was detected with alkaline phosphatase labelled goat anti-human IgG; levels of detected antibody binding were determined according to the following formula: % inhibition=100 (1-OD460with wild-type peptide)(OD460without wild-type peptide)

[4] = system: lymphocytes from patients with early untreated rheumatoid arthritis; test: Proliferation of lymphocytes from early stage RA patients exposed to rdnaJ (stimulation index); type: cell-based, human; settings: rdnaJ 10 μg/ml, 7 days, FIG. 1
Text: FIG. 1 quantifies proliferation of cultured lymphocytes from 22 patients with early, untreated RA (“early stage” RA) following exposure of the cells to intact bacterial dnaJ protein. The responses shown by bars in the graph of FIG. 1 are expressed in terms of a lymphocyte stimulation index; i.e., (CPM detected in cultures with dnaJ)/(CPM detected in cultures without dnaJ). “CPM” refers to counts-per-minute. The control culture tested consisted of lymphocytes obtained from humans without RA.
as §1

## QKRAAYDQYGHAAFE (Synthetic dnaJp1)
[1]
  binding to HLA MHC Class II molecule epitopes relative to human HLA Dw4 peptides (S1 and S6): ≥ 100 times
[2]; FIG. 2
  response of RA patient PBL's to wild-type peptide relative to response of lymphocytes from control subjects to wild-type peptide: approximately 9 times
  response of RA patient blood lymphocytes to wild-type peptide (dnaJp1) relative to response to mutant peptide (dnaJpV): ~10 times
[2]; FIG. 2, listed as wild-type peptide
  response of RA patient blood lymphocytes to wild-type peptide (dnaJp1) relative to response to mutant peptide (dnaJpV): more than 5 times
[3]
  inhibition of antibody binding to rdnaJ in RA sera relative to inhibition in control sera: ~3 times

B1: rdnaJ: recombinant E. coli dnaJ heat shock protein, expressed and affinity purified, 41 kD (protein, UniProt P08622 2-376, looked up)
Chaperone protein DnaJ: AKQDYYEILGVSKTAEEREIRKAYKRLAMKYHPDRNQGDKEAEAKFKEIKEAYEVLTDSQKRAAYDQYGHAAFEQGGMGGGGFGGGADFSDIFGDVFGDIFGGGRGRQRAARGADLRYNMELTLEEAVRGVTKEIRIPTLEECDVCHGSGAKPGTQPQTCPTCHGSGQVQMRQGFFAVQQTCPHCQGRGTLIKDPCNKCHGHGRVERSKTLSVKIPAGVDTGDRIRLAGEGEAGEHGAPAGDLYVQVQVKQHPIFEREGNNLYCEVPINFAMAALGGEIEVPTLDGRVKLKVPGETQTGKLFRMRGKGVKSVRGGAQGDLLCRVVVETPVGLNERQKQLLQELQESFGGPTGEHNSPRSKSFFDGVKKFFDDLTR
[4]; PBL's from 14 early stage RA patients
  proliferation response of PBL's relative to response of control subject lymphocytes: approximately 3.6 times
[4]; synovial fluid lymphocytes from 8 early stage RA patients
  proliferation response of synovial fluid lymphocytes relative to response of control subject lymphocytes: approximately 2.3 times
